# Experimental data: patent publication US20070186301A1, “Mutant BDNF gene introducing knockin mouse” (NATIONAL INSTITUTE OF ADVANCED INDUSTRIAL SCIENCE AND …, priority 2006, published 2007)
# Entries after “also recorded” stand apart in the source; their conditions may differ.
# B1: BDNF-ML: non-cleavable human proBDNF derivative protein with R125M and R127L, SEQ ID NO:2 (protein)
# chain: MTILFLTMVISYFGCMKAAPMKEANIRGQGGLAYPGVRTHGTLESVNGPKAGSRGLTSLADTFEHVIEELLDEDQKVRPNEENNKDADLYTSRVMLSSQVPLEPPLLFLLEEYKNYLDAANMSMMVLRHSDPARRGELSVCDSISEWVTAADKKTAVDMSGGTVTVLEKVPVSKGQLKQYFYETKCNPMGYTKEGCRGIDKRHWNSQCRTTQSYVRALTMDSKKRIGWRFIRIDTSCVCTLTIKRGR
# modifications: Non-cleavable human proBDNF mutant
# How the values were obtained:
# [1] = test system: mutant BDNF gene-knockin mice; assay: Open field (circular field) quantity of activity after etizolam, mutant mice; assay type: in vivo, mouse; details: mutant mice aged 4 to 5 weeks; etizolam solution 0.5 mg/kg intraperitoneally; measured from 5 minutes after administration; p<0.001
# Description: (§1) The abnormal behavior in the mutant BDNF gene-knockin mouse was quantitatively analyzed. An emotional change of the mouse is reflected to the quantity of activity and a behavioral pattern of the mouse when the mouse is placed in a novel environment. The mouse was placed in the novel environment which was an inexperienced circular field (a diameter of 50 cm and a wall height of 40 cm in the field) for 25 to 30 minutes, and the quantity of activity in the meantime was compared between the wild type homozygous mice (wild) and the knockin homozygous mice (mutants). The mouse was placed 30 minutes before the experiment in a room in which the circular field had been disposed, and placed calmly in the circular field using a paper box. The activity of the mouse in the circular field was measured by recording using DV-Track video tracking system supplied from Muromachi Kikai.
# (§2) Etizolam is a short term action type GABA, a neurotransmission accelerator (reference: Elder C. A. et al.: Drug Metab. Dispos., vol. 23, 776, 1995). […] A protocol was comprising (I) measuring the total quantity of activity in the mouse for 30 minutes after being placed in the open field, (II) intraperitoneally administering PBS or the etizolam solution (0.5 mg/kg) and (III) returning the mouse in the open field after 5 minutes and measuring the quantity of activity for 30 minutes in the mouse. […]
# wild type mice = assay: Open field (circular field) quantity of activity after etizolam, wild type mice; assay type: in vivo, mouse; details: wild type mice aged 4 to 5 weeks; etizolam solution 0.5 mg/kg intraperitoneally; measured from 5 minutes after administration; p<0.05
# Description: as §1, §2
# [2] = test system: cerebellar granular nerve cells; assay: Harmful action of non-cleavable proBDNF derivative on cerebellar granular nerve cells; assay type: cell-based
# cholinergic nerve cells = assay: Harmful action of non-cleavable proBDNF derivative on cholinergic nerve cells; assay type: cell-based
Molecule,effect on abnormal behavior (total behavioral distance / quantity of activity for 30 minutes in the open field) [1],effect on quantity of activity for 30 minutes in the open field (wild type mice),action on cell death of cerebellar granular nerve cells [2],action on fibers in cholinergic nerve cells (cholinergic nerve cells)
CCc1cc2c(s1)-n1c(C)nnc1CN=C2c1ccccc1Cl [etizolam],inhibitory effect; also recorded: remarkably inhibited,certainly effective,,
B1,,,facilitation of cell death,facilitation of dropout of fibers
